Results taken from PubChem BioAssay AID248 (DTP/NCI, 2004).
Several values for one entry are separate records, joined by “and”; a condition that tells them apart may be missing. Equal values may be shown once. Inconclusive results and toxic doses are left out. No stated cut-off is given here; in the data, active means T/C of 150% or more; inactive means T/C below 125%.

Tested on: L1210 leukemia ip in BDF1 mice, survival T/C
Assay: NCI In Vivo Anticancer Drug Screen. Data for tumor model L1210 Leukemia (intraperitoneal) in B6D2F1 (BDF1) mice
Details: higher = longer survival
Procedure, shortened: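 Antitumor effect is assessed in tumor-bearing animals. Survival in the compound arm is compared with a vehicle-dosed control arm and expressed as their quotient.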

[1] = endpoint: mean survival time, dose: 100.0 mg/kg/injection, schedule: Q01DX009 (ip), vehicle: saline
[2] = endpoint: mean survival time, dose: 200.0 mg/kg/injection, schedule: Q01DX009 (ip), vehicle: saline
[3] = endpoint: mean survival time, dose: 100.0 mg/kg/injection, schedule: Q01DX001 (ip), vehicle: Klucel (hydroxypropylcellulose) (HPC)
[4] = endpoint: mean survival time, dose: 200.0 mg/kg/injection, schedule: Q01DX001 (ip), vehicle: Klucel (hydroxypropylcellulose) (HPC)
[5] = endpoint: mean survival time, dose: 400.0 mg/kg/injection, schedule: Q01DX001 (ip), vehicle: Klucel (hydroxypropylcellulose) (HPC)
[6] = endpoint: mean survival time, dose: 100.0 mg/kg/injection, schedule: Q01DX001 (ip), vehicle: saline
[7] = endpoint: mean survival time, dose: 200.0 mg/kg/injection, schedule: Q01DX001 (ip), vehicle: saline
[8] = endpoint: mean survival time, dose: 400.0 mg/kg/injection, schedule: Q01DX001 (ip), vehicle: saline
[9] = endpoint: mean survival time, dose: 400.0 mg/kg/injection, schedule: Q01DX009 (ip), vehicle: saline

Measured: T/C

CC1OC(OC2C(O)CC(OC3C(O)CC(OC4CCC5(C)C(CCC6C5CCC5(C)C(C7=CC(=O)OC7)CCC65O)C4)OC3C)OC2C)CC(O)C1O (centres undefined)
inactive: endpoint: mean survival time, dose: 1.0 mg/kg/injection, schedule: Q01DX015 (sc), vehicle: steriod suspending solution 93 % of control | endpoint: mean survival time, dose: 2.0 mg/kg/injection, schedule: Q01DX015 (sc), vehicle: steriod suspending solution 98 % of control | endpoint: mean survival time, dose: 4.0 mg/kg/injection, schedule: Q01DX015 (sc), vehicle: steriod suspending solution 101 % of control | endpoint: mean survival time, dose: 8.0 mg/kg/injection, schedule: Q01DX015 (sc), vehicle: steriod suspending solution 102 % of control | endpoint: mean survival time, dose: 10.0 mg/kg/injection, schedule: Q01DX001 (ip), vehicle: saline 106 % of control | endpoint: mean survival time, dose: 16.0 mg/kg/injection, schedule: Q01DX015 (sc), vehicle: steriod suspending solution 105 % of control | endpoint: mean survival time, dose: 20.0 mg/kg/injection, schedule: Q01DX001 (ip), vehicle: saline 105 % of control | endpoint: mean survival time, dose: 32.0 mg/kg/injection, schedule: Q01DX015 (sc), vehicle: steriod suspending solution 101 % of control | endpoint: mean survival time, dose: 40.0 mg/kg/injection, schedule: Q01DX001 (ip), vehicle: saline 103 % of control | endpoint: median survival time, dose: 0.5 mg/kg/injection, schedule: Q01DX005 (iv), vehicle: water 99 % of control | endpoint: median survival time, dose: 0.5 mg/kg/injection, schedule: Q01DX010 (ip), vehicle: methylcellulose (MC) 91 % of control | endpoint: median survival time, dose: 0.5 mg/kg/injection, schedule: Q01DX010 (ip), vehicle: water 99 % of control and 100 % of control | endpoint: median survival time, dose: 1.0 mg/kg/injection, schedule: Q01DX005 (iv), vehicle: water 99 % of control | endpoint: median survival time, dose: 1.0 mg/kg/injection, schedule: Q01DX010 (ip), vehicle: methylcellulose (MC) 102 % of control | endpoint: median survival time, dose: 1.0 mg/kg/injection, schedule: Q01DX010 (ip), vehicle: water 99 % of control and 100 % of control | endpoint: median survival time, dose: 1.0 mg/kg/injection, schedule: Q04DX003 (ip), vehicle: water 99 % of control and 100 % of control | endpoint: median survival time, dose: 1.0 mg/kg/injection, schedule: Q04DX003 (iv), vehicle: water 96 % of control | endpoint: median survival time, dose: 2.0 mg/kg/injection, schedule: Q01DX005 (ip), vehicle: water 95 % of control | endpoint: median survival time, dose: 2.0 mg/kg/injection, schedule: Q01DX005 (iv), vehicle: water 100 % of control | endpoint: median survival time, dose: 2.0 mg/kg/injection, schedule: Q01DX010 (ip), vehicle: methylcellulose (MC) 104 % of control | endpoint: median survival time, dose: 2.0 mg/kg/injection, schedule: Q01DX010 (ip), vehicle: water 105 % of control and 111 % of control | endpoint: median survival time, dose: 2.0 mg/kg/injection, schedule: Q04DX003 (ip), vehicle: water 95 % of control | endpoint: median survival time, dose: 2.0 mg/kg/injection, schedule: Q04DX003 (iv), vehicle: water 92 % of control | endpoint: median survival time, dose: 4.0 mg/kg/injection, schedule: Q01DX005 (ip), vehicle: water 109 % of control | endpoint: median survival time, dose: 4.0 mg/kg/injection, schedule: Q01DX005 (iv), vehicle: water 106 % of control | endpoint: median survival time, dose: 4.0 mg/kg/injection, schedule: Q01DX010 (ip), vehicle: methylcellulose (MC) 103 % of control | endpoint: median survival time, dose: 4.0 mg/kg/injection, schedule: Q01DX010 (ip), vehicle: water 102 % of control and 105 % of control | endpoint: median survival time, dose: 4.0 mg/kg/injection, schedule: Q04DX003 (ip), vehicle: water 100 % of control | endpoint: median survival time, dose: 4.0 mg/kg/injection, schedule: Q04DX003 (iv), vehicle: water 93 % of control | endpoint: median survival time, dose: 8.0 mg/kg/injection, schedule: Q01DX005 (ip), vehicle: water 113 % of control | endpoint: median survival time, dose: 8.0 mg/kg/injection, schedule: Q01DX005 (iv), vehicle: water 86 % of control | endpoint: median survival time, dose: 8.0 mg/kg/injection, schedule: Q01DX010 (ip), vehicle: water 102 % of control and 105 % of control | endpoint: median survival time, dose: 8.0 mg/kg/injection, schedule: Q04DX003 (ip), vehicle: water 86 % of control | endpoint: median survival time, dose: 8.0 mg/kg/injection, schedule: Q04DX003 (iv), vehicle: water 93 % of control | endpoint: median survival time, dose: 16.0 mg/kg/injection, schedule: Q01DX010 (ip), vehicle: water 93 % of control and 94 % of control | endpoint: median survival time, dose: 16.0 mg/kg/injection, schedule: Q04DX003 (ip), vehicle: water 93 % of control | endpoint: median survival time, dose: 16.0 mg/kg/injection, schedule: Q04DX003 (iv), vehicle: water 68 % of control

CCOC(=O)C(=CN(C(C)C)C(C)C)C(=O)OCC
inactive: endpoint: mean survival time, dose: 50.0 mg/kg/injection, schedule: Q01DX009 (ip), vehicle: saline 100 % of control | [1] 98 % of control | endpoint: mean survival time, dose: 100.0 mg/kg/injection, schedule: Q04DX003 (ip), vehicle: saline with Tween-80 94 % of control | [2] 101 % of control | endpoint: mean survival time, dose: 200.0 mg/kg/injection, schedule: Q04DX003 (ip), vehicle: saline with Tween-80 100 % of control

CO[C@@H]1CCCCCC[C@H]1[Hg][Cl]
inactive: endpoint: mean survival time, dose: 2.0 mg/kg/injection, schedule: Q01DX015 (ip), vehicle: carboxymethylcellulose (CMC) 104 % of control | endpoint: mean survival time, dose: 4.0 mg/kg/injection, schedule: Q01DX015 (ip), vehicle: carboxymethylcellulose (CMC) 95 % of control | endpoint: mean survival time, dose: 5.0 mg/kg/injection, schedule: Q01DX001 (ip), vehicle: carboxymethylcellulose (CMC) 108 % of control | endpoint: mean survival time, dose: 8.0 mg/kg/injection, schedule: Q01DX015 (ip), vehicle: carboxymethylcellulose (CMC) 101 % of control | endpoint: mean survival time, dose: 10.0 mg/kg/injection, schedule: Q01DX001 (ip), vehicle: carboxymethylcellulose (CMC) 112 % of control | endpoint: mean survival time, dose: 16.0 mg/kg/injection, schedule: Q01DX015 (ip), vehicle: carboxymethylcellulose (CMC) 93 % of control | endpoint: mean survival time, dose: 20.0 mg/kg/injection, schedule: Q01DX001 (ip), vehicle: carboxymethylcellulose (CMC) 114 % of control | endpoint: mean survival time, dose: 40.0 mg/kg/injection, schedule: Q01DX001 (ip), vehicle: carboxymethylcellulose (CMC) 108 % of control

CC1CC(Cc2ccccc2CC2CC(C)OC2=O)C(=O)O1 (centres undefined)
inactive: endpoint: mean survival time, dose: 100.0 mg/kg/injection, schedule: Q04DX003 (ip), vehicle: saline 90 % of control | endpoint: mean survival time, dose: 200.0 mg/kg/injection, schedule: Q04DX003 (ip), vehicle: saline 89 % of control | endpoint: mean survival time, dose: 400.0 mg/kg/injection, schedule: Q04DX003 (ip), vehicle: saline 89 % of control

O=CC(O)C(O)C(O)CO (centres undefined) (tested in a mixture with another compound)
inactive: [3] 94 % of control | [4] 88 % of control | [5] 88 % of control

Cc1cnc(C)c(C(O)c2ccccc2)n1 (centres undefined)
inactive: endpoint: mean survival time, dose: 50.0 mg/kg/injection, schedule: Q01DX001 (ip), vehicle: saline 98 % of control | [6] 98 % of control | [7] 112 % of control | [8] 106 % of control

CC(=O)Nc1ccc(/C=N/Nc2c([N+](=O)[O-])cc(C)cc2[N+](=O)[O-])cc1
inactive: [1] 98 % of control | [2] 96 % of control | [9] 94 % of control

CC(O)CNC(=O)C(C)(C)O (centres undefined)
inactive: [1] 96 % of control | [2] 96 % of control | [9] 94 % of control

O=c1c2ccccc2[nH]c(=S)n1C1CCCCC1
inactive: endpoint: mean survival time, dose: 100.0 mg/kg/injection, schedule: Q01DX009 (ip), vehicle: Klucel (hydroxypropylcellulose) (HPC) 99 % of control | endpoint: mean survival time, dose: 100.0 mg/kg/injection, schedule: Q04DX003 (ip), vehicle: Klucel (hydroxypropylcellulose) (HPC) 90 % of control | endpoint: mean survival time, dose: 200.0 mg/kg/injection, schedule: Q01DX009 (ip), vehicle: Klucel (hydroxypropylcellulose) (HPC) 103 % of control | endpoint: mean survival time, dose: 200.0 mg/kg/injection, schedule: Q04DX003 (ip), vehicle: Klucel (hydroxypropylcellulose) (HPC) 101 % of control | endpoint: mean survival time, dose: 400.0 mg/kg/injection, schedule: Q01DX009 (ip), vehicle: Klucel (hydroxypropylcellulose) (HPC) 98 % of control | endpoint: mean survival time, dose: 400.0 mg/kg/injection, schedule: Q04DX003 (ip), vehicle: Klucel (hydroxypropylcellulose) (HPC) 100 % of control

CCOc1cccc(Cc2c[nH]c(=S)[nH]c2=O)c1
inactive: [3] 100 % of control | [4] 105 % of control | [5] 94 % of control

Cc1ccc2c(ccc3c[n+]4ccccc4c(C)c32)c1
inactive: endpoint: mean survival time, dose: 12.5 mg/kg/injection, schedule: Q01DX001 (ip), vehicle: carboxymethylcellulose (CMC) 107 % of control | endpoint: mean survival time, dose: 25.0 mg/kg/injection, schedule: Q01DX001 (ip), vehicle: carboxymethylcellulose (CMC) 96 % of control

CCC1=C(C)CN(C)c2ccccc21
inactive: [6] 100 % of control | [7] 100 % of control | [8] 94 % of control

O=S(=O)(O)OC1CCCC1S(=O)(=O)O (centres undefined)
inactive: endpoint: mean survival time, dose: 50.0 mg/kg/injection, schedule: Q01DX001 (ip), vehicle: carboxymethylcellulose (CMC) 96 % of control | endpoint: mean survival time, dose: 100.0 mg/kg/injection, schedule: Q01DX001 (ip), vehicle: carboxymethylcellulose (CMC) 107 % of control | endpoint: mean survival time, dose: 200.0 mg/kg/injection, schedule: Q01DX001 (ip), vehicle: carboxymethylcellulose (CMC) 107 % of control | endpoint: mean survival time, dose: 400.0 mg/kg/injection, schedule: Q01DX001 (ip), vehicle: carboxymethylcellulose (CMC) 86 % of control
